# From ChEMBL document CHEMBL3991601, “The target landscape of clinical kinase drugs” (Science, 2017)
# Structures can show the parent of a compound that is named as a salt. Calls of active or inactive are those of the source.
# Experiments:
# [1] = target: Structural maintenance of chromosomes protein 2 (Homo sapiens, UniProt O95347)
# [2] = target: T1, Tyrosine-protein kinase Tec (Homo sapiens, UniProt P42680)
# T1 sequence (P42680 whole entry): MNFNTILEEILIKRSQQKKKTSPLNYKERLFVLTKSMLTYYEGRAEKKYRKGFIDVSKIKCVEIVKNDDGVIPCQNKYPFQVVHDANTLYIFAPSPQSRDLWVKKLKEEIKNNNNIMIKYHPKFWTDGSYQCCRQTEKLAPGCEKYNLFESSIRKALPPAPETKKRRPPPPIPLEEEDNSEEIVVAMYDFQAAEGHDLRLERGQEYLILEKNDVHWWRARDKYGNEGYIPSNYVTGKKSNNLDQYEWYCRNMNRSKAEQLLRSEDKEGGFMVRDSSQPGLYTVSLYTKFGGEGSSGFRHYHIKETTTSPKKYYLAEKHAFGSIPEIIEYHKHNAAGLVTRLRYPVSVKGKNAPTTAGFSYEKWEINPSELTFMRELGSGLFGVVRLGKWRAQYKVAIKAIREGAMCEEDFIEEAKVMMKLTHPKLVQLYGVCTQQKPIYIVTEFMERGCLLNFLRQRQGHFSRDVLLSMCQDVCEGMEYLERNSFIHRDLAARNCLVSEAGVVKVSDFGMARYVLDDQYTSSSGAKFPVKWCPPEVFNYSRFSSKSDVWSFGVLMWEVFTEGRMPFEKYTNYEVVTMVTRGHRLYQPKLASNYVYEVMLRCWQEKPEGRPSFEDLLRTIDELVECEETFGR
# [3] = target: cAMP-dependent protein kinase catalytic subunit gamma (Homo sapiens, UniProt P22612)
# [4] = target: T2, MAP kinase-activated protein kinase 5 (Homo sapiens, UniProt Q8IW41)
# T2 sequence (Q8IW41 whole entry): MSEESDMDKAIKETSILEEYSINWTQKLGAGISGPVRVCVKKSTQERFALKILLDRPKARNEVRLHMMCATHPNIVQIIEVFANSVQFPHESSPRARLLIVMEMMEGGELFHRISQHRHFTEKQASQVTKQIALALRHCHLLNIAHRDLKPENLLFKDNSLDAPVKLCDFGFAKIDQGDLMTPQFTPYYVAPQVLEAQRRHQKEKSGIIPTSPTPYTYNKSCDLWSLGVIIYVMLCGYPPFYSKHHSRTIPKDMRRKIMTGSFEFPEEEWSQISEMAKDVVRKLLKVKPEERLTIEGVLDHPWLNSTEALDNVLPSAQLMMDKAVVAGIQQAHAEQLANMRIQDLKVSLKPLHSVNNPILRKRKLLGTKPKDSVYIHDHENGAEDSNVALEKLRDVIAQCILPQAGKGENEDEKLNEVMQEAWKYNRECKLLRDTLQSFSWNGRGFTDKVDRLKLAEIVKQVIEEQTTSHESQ
# [5] = target: T3, Ras-related protein Rab-27A (Homo sapiens, UniProt P51159)
# T3 sequence (P51159 whole entry): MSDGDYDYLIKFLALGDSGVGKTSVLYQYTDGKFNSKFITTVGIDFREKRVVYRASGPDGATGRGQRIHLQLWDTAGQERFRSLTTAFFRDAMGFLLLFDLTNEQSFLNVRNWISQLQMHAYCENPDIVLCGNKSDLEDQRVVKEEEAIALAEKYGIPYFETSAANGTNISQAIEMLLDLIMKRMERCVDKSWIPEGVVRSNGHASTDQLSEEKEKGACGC
# [6] = target: T4, Cysteine--tRNA ligase, cytoplasmic (Homo sapiens, UniProt P49589)
# T4 sequence (P49589 whole entry): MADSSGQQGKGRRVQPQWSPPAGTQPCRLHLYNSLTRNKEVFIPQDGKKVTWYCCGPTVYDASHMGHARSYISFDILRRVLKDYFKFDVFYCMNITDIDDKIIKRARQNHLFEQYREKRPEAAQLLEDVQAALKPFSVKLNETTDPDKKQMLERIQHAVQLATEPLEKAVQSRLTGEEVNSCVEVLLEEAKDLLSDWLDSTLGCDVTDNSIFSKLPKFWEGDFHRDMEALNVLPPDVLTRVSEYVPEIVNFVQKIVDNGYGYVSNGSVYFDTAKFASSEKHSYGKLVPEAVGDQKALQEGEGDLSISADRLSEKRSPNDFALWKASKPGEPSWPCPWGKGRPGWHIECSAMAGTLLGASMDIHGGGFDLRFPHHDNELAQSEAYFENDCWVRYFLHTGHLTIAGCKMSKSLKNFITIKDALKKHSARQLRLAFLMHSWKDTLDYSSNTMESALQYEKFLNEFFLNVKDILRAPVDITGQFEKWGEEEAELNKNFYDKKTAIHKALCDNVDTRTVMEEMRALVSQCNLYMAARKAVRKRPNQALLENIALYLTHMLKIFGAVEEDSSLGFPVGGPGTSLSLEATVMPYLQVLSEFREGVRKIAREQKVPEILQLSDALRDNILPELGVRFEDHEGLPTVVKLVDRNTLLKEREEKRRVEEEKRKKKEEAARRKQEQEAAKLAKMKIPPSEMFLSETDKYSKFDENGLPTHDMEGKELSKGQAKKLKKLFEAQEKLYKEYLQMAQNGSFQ
# [7] = target: Dual specificity protein kinase CLK1 (Homo sapiens, UniProt P49759)
# Further: in the data inactive means no Kd found up to 30 µM.
# Dual specificity protein kinase CLK1, sequence (P49759 whole entry): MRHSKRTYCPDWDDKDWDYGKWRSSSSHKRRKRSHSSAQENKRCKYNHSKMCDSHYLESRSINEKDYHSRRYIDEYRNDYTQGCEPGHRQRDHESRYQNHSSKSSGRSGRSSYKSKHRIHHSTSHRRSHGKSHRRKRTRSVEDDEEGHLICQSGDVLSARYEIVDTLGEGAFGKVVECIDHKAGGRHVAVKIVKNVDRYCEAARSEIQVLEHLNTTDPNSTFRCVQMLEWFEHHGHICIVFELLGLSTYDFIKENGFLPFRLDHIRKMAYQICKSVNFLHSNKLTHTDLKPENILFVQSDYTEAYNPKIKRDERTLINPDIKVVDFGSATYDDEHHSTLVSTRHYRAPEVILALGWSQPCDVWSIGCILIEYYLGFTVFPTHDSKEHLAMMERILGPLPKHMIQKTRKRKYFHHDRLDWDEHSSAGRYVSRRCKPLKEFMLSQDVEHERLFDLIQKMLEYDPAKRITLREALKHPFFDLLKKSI
# Structural maintenance of chromosomes protein 2, sequence (O95347 whole entry): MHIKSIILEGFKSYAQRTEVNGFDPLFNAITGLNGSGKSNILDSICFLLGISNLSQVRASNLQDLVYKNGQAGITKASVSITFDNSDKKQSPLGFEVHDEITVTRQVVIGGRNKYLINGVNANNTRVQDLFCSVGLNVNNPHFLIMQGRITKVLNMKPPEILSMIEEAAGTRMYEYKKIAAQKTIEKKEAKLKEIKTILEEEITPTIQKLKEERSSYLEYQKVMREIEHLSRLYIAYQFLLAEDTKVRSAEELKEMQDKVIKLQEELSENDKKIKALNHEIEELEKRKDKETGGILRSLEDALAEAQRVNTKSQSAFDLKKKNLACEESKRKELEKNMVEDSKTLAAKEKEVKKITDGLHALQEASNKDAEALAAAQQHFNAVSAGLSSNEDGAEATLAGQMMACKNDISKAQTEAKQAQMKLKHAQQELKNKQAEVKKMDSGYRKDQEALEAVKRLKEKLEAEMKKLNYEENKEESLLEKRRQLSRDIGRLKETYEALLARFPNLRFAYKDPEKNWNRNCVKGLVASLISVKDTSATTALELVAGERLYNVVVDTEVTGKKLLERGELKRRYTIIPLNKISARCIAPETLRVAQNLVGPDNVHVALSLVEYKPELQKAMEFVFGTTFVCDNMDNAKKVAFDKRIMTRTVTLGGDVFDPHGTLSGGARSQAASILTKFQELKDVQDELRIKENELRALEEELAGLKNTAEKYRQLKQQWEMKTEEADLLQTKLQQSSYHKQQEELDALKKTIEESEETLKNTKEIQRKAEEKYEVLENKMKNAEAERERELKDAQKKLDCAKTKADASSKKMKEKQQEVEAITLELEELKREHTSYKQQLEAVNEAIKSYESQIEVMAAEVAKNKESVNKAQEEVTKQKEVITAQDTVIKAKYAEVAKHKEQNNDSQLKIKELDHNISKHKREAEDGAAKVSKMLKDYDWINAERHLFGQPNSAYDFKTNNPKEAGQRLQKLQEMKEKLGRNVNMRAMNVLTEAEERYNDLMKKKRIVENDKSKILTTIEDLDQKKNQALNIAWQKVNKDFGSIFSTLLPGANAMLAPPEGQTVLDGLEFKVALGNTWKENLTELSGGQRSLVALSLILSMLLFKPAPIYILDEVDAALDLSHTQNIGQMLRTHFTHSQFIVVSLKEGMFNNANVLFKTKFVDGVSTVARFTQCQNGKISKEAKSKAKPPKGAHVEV
# cAMP-dependent protein kinase catalytic subunit gamma, sequence (P22612 whole entry): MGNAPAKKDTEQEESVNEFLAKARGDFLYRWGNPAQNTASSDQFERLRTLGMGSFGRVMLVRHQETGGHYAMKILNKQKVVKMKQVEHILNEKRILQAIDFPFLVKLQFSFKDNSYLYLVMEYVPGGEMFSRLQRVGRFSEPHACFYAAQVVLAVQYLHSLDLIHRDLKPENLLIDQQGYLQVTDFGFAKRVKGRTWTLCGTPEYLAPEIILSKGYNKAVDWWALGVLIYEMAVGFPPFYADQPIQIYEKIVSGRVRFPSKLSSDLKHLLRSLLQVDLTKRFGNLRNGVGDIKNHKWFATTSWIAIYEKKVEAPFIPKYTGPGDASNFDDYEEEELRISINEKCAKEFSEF
Kd [1],Kd [2],Kd [3],Kd [4],Kd [5],Kd [6],Kd [7],SMILES
> 30 µM (inactive),> 30 µM (inactive),> 30 µM (inactive),> 30 µM (inactive),> 30 µM (inactive),–,–,C[C@@H](Oc1cc(C(=O)Nc2ccc(C(=O)N3CCN(C)CC3)cc2)nnc1N)c1c(Cl)ccc(F)c1Cl
> 30 µM (inactive),> 30 µM (inactive),> 30 µM (inactive),–,> 30 µM (inactive),–,–,C[C@H]1CNCCCN1S(=O)(=O)c1cccc2cncc(F)c12
> 30 µM (inactive),> 30 µM (inactive),> 30 µM (inactive),> 30 µM (inactive),> 30 µM (inactive),> 30 µM (inactive),–,Nc1ncnc2c1c(-c1cccc(OCc3ccccc3)c1)cn2[C@H]1C[C@@H](CN2CCC2)C1 [AEW-541]
> 30 µM (inactive),> 30 µM (inactive),> 30 µM (inactive),> 30 µM (inactive),> 30 µM (inactive),–,2.46 µM (active),Cc1csc(-c2nnc(Nc3ccc(Oc4ncccc4-c4ccnc(N)n4)cc3)c3ccccc23)c1 [AMG-900]
> 30 µM (inactive),0.422 µM (active),> 30 µM (inactive),> 30 µM (inactive),> 30 µM (inactive),–,> 30 µM (inactive),C=CC(=O)Nc1cc2c(Nc3ccc(F)c(Cl)c3)ncnc2cc1C#CC(C)(C)N1CCN(C)CC1 [AV-412 FREE BASE]
> 30 µM (inactive),–,> 30 µM (inactive),–,> 30 µM (inactive),> 30 µM (inactive),–,CNC(=O)c1ccccc1Sc1ccc2c(/C=C/c3ccccn3)n[nH]c2c1 [AXITINIB]
> 30 µM (inactive),> 30 µM (inactive),> 30 µM (inactive),> 30 µM (inactive),> 30 µM (inactive),–,> 30 µM (inactive),CCS(=O)(=O)N1CCN(c2ccc(Nc3ncc(C(N)=O)c(NC4CC4)n3)cc2)CC1 [Cerdulatinib Hydrochloride]
> 30 µM (inactive),> 30 µM (inactive),–,> 30 µM (inactive),> 30 µM (inactive),–,–,Cc1nc2cc(-n3ncc(C(=O)c4cc5ccccc5[nH]4)c3N)ccc2[nH]1 [FGFR INHIBITOR DEBIO 1347]
> 30 µM (inactive),–,–,–,> 30 µM (inactive),> 30 µM (inactive),–,C[C@@H](Oc1cc(-n2cnc3ccc(CN4CCN(C)CC4)cc32)sc1C(N)=O)c1ccccc1C(F)(F)F [GSK-461364]
> 30 µM (inactive),> 30 µM (inactive),> 30 µM (inactive),> 30 µM (inactive),> 30 µM (inactive),–,> 30 µM (inactive),COc1ccc(S(=O)(=O)N(C(C)=O)c2ccccc2/C=C/c2cc[n+]([O-])cc2)cc1 [HMN-214]
> 30 µM (inactive),> 30 µM (inactive),> 30 µM (inactive),> 30 µM (inactive),> 30 µM (inactive),–,> 30 µM (inactive),COc1ncc(-c2ccc3nccc(-c4ccnnc4)c3c2)cc1NS(=O)(=O)c1ccc(F)cc1F [OMIPALISIB]
> 30 µM (inactive),> 30 µM (inactive),> 30 µM (inactive),–,> 30 µM (inactive),–,> 30 µM (inactive),NC(=O)c1c(OCc2c(F)cc(Br)cc2F)nsc1NC(=O)NCCCCN1CCCC1 [OSI-632]
> 30 µM (inactive),> 30 µM (inactive),> 30 µM (inactive),> 30 µM (inactive),> 30 µM (inactive),–,> 30 µM (inactive),CO[C@H]1C[C@@H]2CC[C@@H](C)[C@@](O)(O2)C(=O)C(=O)N2CCCC[C@H]2C(=O)O[C@H]([C@H](C)C[C@@H]2CC[C@@H](OP(C)(C)=O)[C@H](OC)C2)CC(=O)[C@H](C)/C=C(\C)[C@@H](O)[C@@H](OC)C(=O)[C@H](C)C[C@H](C)/C=C/C=C/C=C/1C [RIDAFOROLIMUS]
> 30 µM (inactive),–,> 30 µM (inactive),–,> 30 µM (inactive),> 30 µM (inactive),–,O=C(NOCCO)c1cc(CN2OCCCC2=O)c(F)c(F)c1Nc1ccc(I)cc1F [RO-4987655]
> 30 µM (inactive),–,> 30 µM (inactive),–,> 30 µM (inactive),> 30 µM (inactive),–,N#CC[C@H](C1CCCC1)n1cc(-c2ncnc3[nH]ccc23)cn1 [RUXOLITINIB]
> 30 µM (inactive),> 30 µM (inactive),> 30 µM (inactive),> 30 µM (inactive),> 30 µM (inactive),–,> 30 µM (inactive),Cn1cc(-c2cnn3c(N)c(Br)c([C@@H]4CCCNC4)nc23)cn1 [SCH-900776]
> 30 µM (inactive),0.282 µM (active),> 30 µM (inactive),> 30 µM (inactive),> 30 µM (inactive),–,> 30 µM (inactive),CCS(=O)(=O)c1cccc(-c2cc(C(=O)NC3CCN(C)CC3)c(C)c3[nH]c4ncc(C)cc4c23)c1 [TAK-901]
> 30 µM (inactive),> 30 µM (inactive),> 30 µM (inactive),> 30 µM (inactive),> 30 µM (inactive),–,–,Cn1ncc(Cl)c1-c1cc(C(=O)N[C@H](CN)Cc2ccc(F)c(F)c2)oc1Cl [UPROSERTIB]
> 30 µM (inactive),> 30 µM (inactive),> 30 µM (inactive),> 30 µM (inactive),> 30 µM (inactive),–,0.018 µM (active),C[C@@H](N)c1ccc(C(=O)Nc2ccnc3[nH]ccc23)cc1 [Y-39983]

SMILES,Kd [1],Kd [2],Kd [3],Kd [4],Kd [5],Kd [6],Kd [7]
NC(=O)Nc1cc(-c2cccc(F)c2)sc1C(=O)N[C@H]1CCCNC1 [AZD-7762],> 30 µM (inactive),2.61 µM (active),> 30 µM (inactive),> 30 µM (inactive),> 30 µM (inactive),–,> 30 µM (inactive)
Cn1cc(C2=C(c3cn(C4CCN(Cc5ccccn5)CC4)c4ccccc34)C(=O)NC2=O)c2ccccc21 [ENZASTAURIN],> 30 µM (inactive),–,> 30 µM (inactive),–,> 30 µM (inactive),> 30 µM (inactive),–
O=C(Nc1nc2cccc(-c3ccc(CN4CCS(=O)(=O)CC4)cc3)n2n1)C1CC1 [FILGOTINIB],> 30 µM (inactive),> 30 µM (inactive),> 30 µM (inactive),> 30 µM (inactive),> 30 µM (inactive),–,–
CNC(=O)c1cc(Oc2ccc(NC(=O)Nc3cc(C(C)(C)C)nn3-c3ccc4ncccc4c3)c(F)c2)ccn1 [REBASTINIB],> 30 µM (inactive),> 30 µM (inactive),> 30 µM (inactive),> 30 µM (inactive),> 30 µM (inactive),–,2.14 µM (active)
CN1CCN(CCOc2cc(OC3CCOCC3)c3c(Nc4c(Cl)ccc5c4OCO5)ncnc3c2)CC1 [SARACATINIB],> 30 µM (inactive),> 30 µM (inactive),> 30 µM (inactive),> 30 µM (inactive),> 30 µM (inactive),–,> 30 µM (inactive)
